Source: patent US20260022142A1, “MACROCYCLIC IMMUNOMODULATORS” (Bristol-Myers Squibb Company, priority 2022, published 2026)
pIC50: −log10 of the molar value. Numbered stars: 1 amine (or outer) side, 2 acyl side, 3 side chain; on linkers, the order of the positions; unused ones are H or OH. Bridge positions count the residues as written; N and C are the ends. Square brackets hold non-standard residues; d marks the D form. Peptide text beside a SMILES is read from it. * marks the point of attachment. ξ: configuration not given here. Bip = N[C@@H](Cc1ccc(-c2ccccc2)cc1)C(=O)O; Phe(3-Me) = Cc1cccc(C[C@H](N)C(=O)O)c1; Phe(4-F) = N[C@@H](Cc1ccc(F)cc1)C(=O)O; Pro(4R-NH2) = N[C@H]1CN[C@H](C(=O)O)C1; Val(3-OH) = CC(C)(O)[C@H](N)C(=O)O; hArg = N=C(N)NCCCC[C@H](N)C(=O)O; 4Pal = N[C@@H](Cc1ccncc1)C(=O)O; Cha = N[C@@H](CC1CCCCC1)C(=O)O; Cit = NC(=O)NCCC[C@H](N)C(=O)O; Thr(3ξ) = CC(O)[C@H](N)C(=O)O; CH2COCH2 = O=C(C[*:1])C[*:2]; 12Ado = NCCCCCCCCCCCC(=O)O; hSer = N[C@@H](CCO)C(=O)O; Carboxymethyl = O=C(O)C*; NMeA = CN[C@@H](C)C(=O)O; Orn = NCCC[C@H](N)C(=O)O; Aun = NCCCCCCCCCCC(=O)O; Dab = NCC[C@H](N)C(=O)O; Dap = NC[C@H](N)C(=O)O; AEEA = NCCOCCOCC(=O)O

Molecular target: T1, PD-1/PD-L1 interaction (PE-labeled human PD-L1-Ig binding to Jurkat cell line over-expressing human PD-1) (Homo sapiens, UniProt Q15116)
T1 construct: expressed in transfected cells; host or cells: Jurkat
Assay: Jurkat-PD-1 Cell Binding High-Content Screening Assay (CBA)
Assay type: cell-based
Details: Jurkat cell line over-expressing human PD-1; PE-labeled PD-L1-Ig 20 nM final; read-out: Jurkat hPD1-PDL1 IC50
Outline: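 Jurkat cells over-expressing human PD-1 (8×10^3 per well, DMEM/10% FCS) preincubated with compound 2 h at 37° C, then PE-labeled human PD-L1-Ig (20 nM final) added for 1 h. Cells fixed with paraformaldehyde, Hoechst-stained, and bound fluorescence quantified by high-content imaging.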

T1 sequence (Q15116 25-288): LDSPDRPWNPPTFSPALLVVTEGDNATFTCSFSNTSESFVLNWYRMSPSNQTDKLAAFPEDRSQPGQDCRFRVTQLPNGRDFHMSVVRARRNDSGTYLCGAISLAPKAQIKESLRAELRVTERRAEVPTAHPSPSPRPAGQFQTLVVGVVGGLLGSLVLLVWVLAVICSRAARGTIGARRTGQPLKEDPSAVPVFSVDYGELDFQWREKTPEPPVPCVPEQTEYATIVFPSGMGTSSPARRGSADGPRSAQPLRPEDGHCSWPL

Row | pIC50 | Compound
1 | 7.95 | Cc1cccc(C[C@@H]2NC(=O)[C@H](CC(=O)O)NC(=O)[C@H](Cc3ccc(OCC(=O)O)cc3)NC(=O)[C@H](Cc3ccc(F)cc3)NC(=O)CSC[C@@H](C(=O)N[C@@H](CCN)C(=O)NCCOCCOCC(=O)NCCCCCCCCCCC(=O)O)NC(=O)[C@H](CC(=O)O)NC(=O)[C@H](C(C)C)NC(=O)[C@H](CC3CCCCC3)NC(=O)[C@H](CCN)NC(=O)[C@@H](CC(C)C)NC(=O)[C@H](CCCN)NC(=O)[C@H](Cc3ccc(OCC(=O)O)cc3)NC(=O)[C@H](Cc3ccc(-c4ccccc4)cc3)NC(=O)[C@H](Cc3ccc(OCC(=O)O)cc3)NC2=O)c1 [Compound 3799] ({CH2CO}-[Phe(4-F)]Y(Carboxymethyl)D[Phe(3-Me)]Y(Carboxymethyl)[Bip]Y(Carboxymethyl)[Orn][dL][Dab][Cha]VDC[Dab][AEEA][Aun]-OH; thioether N-14)
2 | 8.31 | Cc1cccc(C[C@@H]2NC(=O)[C@H](CC(=O)O)NC(=O)[C@H](Cc3ccc(OCC(=O)O)cc3)NC(=O)[C@H](CN)NC(=O)CSC[C@@H](C(=O)NCCOCCOCC(=O)N[C@@H](CCN)C(=O)NCCCCCCCCCCC(=O)O)NC(=O)[C@H](CN)NC(=O)[C@H](C(C)C)NC(=O)[C@H](CC3CCCCC3)NC(=O)[C@H](CCN)NC(=O)[C@@H](CC(C)C)NC(=O)[C@H](CCCN)NC(=O)[C@H](C(C)C)NC(=O)[C@H](Cc3ccc(-c4ccccc4)cc3)NC(=O)[C@H](C(C)C)NC2=O)c1 [Compound 2542] ({CH2CO}-[Dap]Y(Carboxymethyl)D[Phe(3-Me)]V[Bip]V[Orn][dL][Dab][Cha]V[Dap]C[AEEA][Dab][Aun]-OH; thioether N-14)
3 | 7.80 | Cc1cccc(C[C@@H]2NC(=O)[C@H](CC(=O)O)NC(=O)[C@H](Cc3ccc(OCC(=O)O)cc3)NC(=O)[C@H](CN)NC(=O)CSC[C@@H](C(=O)N[C@@H](C)C(=O)N[C@@H](CN)C(=O)NCCCCCCCCCCC(=O)O)NC(=O)[C@H]([C@@H](C)O)NC(=O)[C@H](C(C)C)NC(=O)[C@H](CC3CCCCC3)NC(=O)[C@H](CCN)NC(=O)[C@@H](CC(C)C)NC(=O)[C@H](CCCN)NC(=O)[C@H](CCCNC(N)=O)NC(=O)[C@H](Cc3ccc(-c4ccccc4)cc3)NC(=O)[C@H](C(C)C)NC2=O)c1 [Compound 1057] ({CH2CO}-[Dap]Y(Carboxymethyl)D[Phe(3-Me)]V[Bip][Cit][Orn][dL][Dab][Cha]VTCA[Dap][Aun]-OH; thioether N-14)
4 | 8.00 | CC(=O)COc1ccc(C[C@@H]2NC(=O)[C@H](Cc3cccc(C)c3)NC(=O)[C@H](CC(=O)O)NC(=O)[C@H](Cc3ccc(OCC(=O)O)cc3)NC(=O)[C@H](CCCNC(=N)N)NC(=O)CSC[C@@H](C(=O)N[C@@H](CCN)C(=O)NCCCCCCCCCCC(=O)O)NC(=O)[C@H]([C@@H](C)O)NC(=O)[C@H](C(C)C)NC(=O)[C@H](CC3CCCCC3)NC(=O)[C@H](CCN)NC(=O)[C@@H](CC(C)C)NC(=O)[C@H](CCCN)NC(=O)[C@H](Cc3ccncc3)NC(=O)[C@H](Cc3ccc(-c4ccccc4)cc3)NC2=O)cc1 [Compound 2114] ({CH2CO}-RY(Carboxymethyl)D[Phe(3-Me)]Y(CH2COCH2)[Bip][4Pal][Orn][dL][Dab][Cha]VTC[Dab][Aun]-OH; thioether N-14)
5 | 7.75 | Cc1cccc(C[C@@H]2NC(=O)[C@H](CC(=O)O)NC(=O)[C@H](Cc3ccc(OCC(=O)O)cc3)NC(=O)[C@H](CCCCNC(=N)N)NC(=O)CSC[C@@H](C(=O)NCC(=O)NCCOCCOCC(=O)N[C@@H](CCC(=O)O)C(=O)NCCCCCCCCCCCC(=O)O)NC(=O)[C@H](CO)NC(=O)[C@H](C(C)C)NC(=O)[C@H](CC3CCCCC3)NC(=O)[C@H](CCN)NC(=O)[C@@H](CC(C)C)NC(=O)[C@H](CCCN)NC(=O)[C@H](CCCNC(N)=O)NC(=O)[C@H](Cc3ccc(-c4ccccc4)cc3)NC(=O)[C@H](C(C)C)NC2=O)c1 [Compound 3185] ({CH2CO}-[hArg]Y(Carboxymethyl)D[Phe(3-Me)]V[Bip][Cit][Orn][dL][Dab][Cha]VSCG[AEEA]E[12Ado]-OH; thioether N-14)
6 | 6.16 | CC(C)C[C@H]1NC(=O)[C@H](CCCN)NC(=O)[C@H](C(C)C)NC(=O)[C@H](Cc2ccc(-c3ccccc3)cc2)NC(=O)[C@H](C(C)C)NC(=O)[C@H](Cc2c[nH]c3ccccc23)NC(=O)[C@H](CC(=O)O)NC(=O)[C@H](Cc2ccc(OCC(=O)O)cc2)NC(=O)[C@H](CCCNC(=N)N)NC(=O)CSC[C@@H](C(=O)NCC(=O)NCCOCCOCC(=O)N[C@@H](CCCN)C(=O)NCCCCCCCCCCC(=O)O)NC(=O)[C@H](CCN)NC(=O)[C@H](C(C)C)NC(=O)[C@H](CC2CCCCC2)NC(=O)[C@@H]2C[C@@H](N)CN2C1=O [Compound 3242] ({CH2CO}-RY(Carboxymethyl)DWV[Bip]V[Orn][dL][Pro(4R-NH2)][Cha]V[Dab]CG[AEEA][Orn][Aun]-OH; thioether N-14)
7 | 7.99 | Cc1cccc(C[C@@H]2NC(=O)[C@H](CC(=O)O)NC(=O)[C@H](Cc3ccc(OCC(=O)O)cc3)NC(=O)[C@H](CN)NC(=O)CSC[C@@H](C(=O)N[C@@H](CCN)C(=O)NCCOCCOCC(=O)NCCCCCCCCCCC(=O)O)NC(=O)[C@H](CCCNC(=N)N)NC(=O)[C@H](C(C)C)NC(=O)[C@H](CC3CCCCC3)NC(=O)[C@H](CCN)NC(=O)[C@@H](CC(C)C)NC(=O)[C@H](CCCN)NC(=O)[C@H](CCCNC(N)=O)NC(=O)[C@H](Cc3ccc(-c4ccccc4)cc3)NC(=O)[C@H](C(C)C)NC2=O)c1 [Compound 2635] ({CH2CO}-[Dap]Y(Carboxymethyl)D[Phe(3-Me)]V[Bip][Cit][Orn][dL][Dab][Cha]VRC[Dab][AEEA][Aun]-OH; thioether N-14)
8 | 6.92 | CC(C)C[C@H]1NC(=O)[C@H](CCCN)NC(=O)[C@H](Cc2ccc(O)cc2)NC(=O)[C@H](Cc2ccc(-c3ccccc3)cc2)NC(=O)[C@H](Cc2ccc(O)cc2)NC(=O)[C@H](Cc2c[nH]c3ccccc23)NC(=O)[C@H](CC(=O)O)NC(=O)[C@H](Cc2ccc(OCC(=O)O)cc2)NC(=O)[C@H](CN)NC(=O)CSC[C@@H](C(=O)N[C@@H](CCN)C(=O)NCCCCCCCCCCC(=O)O)NC(=O)[C@H](CCCCN)NC(=O)[C@H](C(C)O)NC(=O)[C@H](CC2CCCCC2)NC(=O)[C@H](CCN)NC1=O (stereo partly drawn) [Compound 3657] ({CH2CO}-[Dap]Y(Carboxymethyl)DWY[Bip]Y[Orn][dL][Dab][Cha][Thr(3ξ)]KC[Dab][Aun]-OH; thioether N-14)
9 | 7.39 | Cc1cccc(C[C@@H]2NC(=O)[C@H](CC(=O)O)NC(=O)[C@H](Cc3ccc(OCC(=O)O)cc3)NC(=O)[C@H](Cc3ccncc3)NC(=O)CSC[C@@H](C(=O)N[C@@H](CCN)C(=O)NCCCCCCCCCCC(=O)O)NC(=O)[C@H]([C@@H](C)O)NC(=O)[C@H](C(C)C)NC(=O)[C@H](CC3CCCCC3)NC(=O)[C@H](CCN)NC(=O)[C@@H](CC(C)C)NC(=O)[C@H](CCCN)NC(=O)[C@H](Cc3ccc(OCC(=O)O)cc3)NC(=O)[C@H](Cc3ccc(-c4ccccc4)cc3)NC(=O)[C@H](C(C)(C)O)NC2=O)c1 [Compound 2151] ({CH2CO}-[4Pal]Y(Carboxymethyl)D[Phe(3-Me)][Val(3-OH)][Bip]Y(Carboxymethyl)[Orn][dL][Dab][Cha]VTC[Dab][Aun]-OH; thioether N-14)
10 | 7.79 | CC(C)C[C@H]1NC(=O)[C@H](CCCN)NC(=O)[C@H](Cc2ccc(O)cc2)NC(=O)[C@H](Cc2ccc(-c3ccccc3)cc2)NC(=O)[C@H](C(C)C)NC(=O)[C@H](Cc2c[nH]c3ccccc23)NC(=O)[C@H](CC(=O)O)NC(=O)[C@H](Cc2ccc(OCC(=O)O)cc2)NC(=O)[C@H](CCCNC(=N)N)NC(=O)CSC[C@@H](C(=O)N[C@@H](CCN)C(=O)NCCCCCCCCCCC(=O)O)NC(=O)[C@H](CCO)NC(=O)[C@H](C(C)C)NC(=O)[C@H](CC2CCCCC2)NC(=O)[C@H](CCN)NC1=O [Compound 3412] ({CH2CO}-RY(Carboxymethyl)DWV[Bip]Y[Orn][dL][Dab][Cha]V[hSer]C[Dab][Aun]-OH; thioether N-14)
11 | 7.90 | Cc1cccc(C[C@@H]2NC(=O)[C@H](CC(=O)O)NC(=O)[C@H](Cc3c[nH]cn3)NC(=O)[C@H](CCCCNC(=N)N)NC(=O)CSC[C@@H](C(=O)NCCOCCOCC(=O)NCCCCCCCCCCC(=O)O)NC(=O)[C@H](CCCN)NC(=O)[C@H](C(C)C)NC(=O)[C@H](CC3CCCCC3)NC(=O)[C@H](CCN)NC(=O)[C@@H](CC(C)C)NC(=O)[C@H](CCCN)NC(=O)[C@H](C(C)C)NC(=O)[C@H](Cc3ccc(-c4ccccc4)cc3)NC(=O)[C@H](C(C)C)NC2=O)c1 [Compound 3264] ({CH2CO}-[hArg]HD[Phe(3-Me)]V[Bip]V[Orn][dL][Dab][Cha]V[Orn]C[AEEA][Aun]-OH; thioether N-14)
12 | 7.95 | Cc1cccc(C[C@@H]2NC(=O)[C@H](CC(=O)O)NC(=O)[C@H](Cc3ccc(OCC(=O)O)cc3)NC(=O)[C@H](CCCCN)NC(=O)CSC[C@@H](C(=O)N[C@@H](CCN)C(=O)NCCCCCCCCCCC(=O)O)NC(=O)[C@H](CO)NC(=O)[C@H](C(C)(C)O)NC(=O)[C@H](CC3CCCCC3)NC(=O)[C@H](CCN)NC(=O)[C@@H](CC(C)C)NC(=O)[C@H](CCCN)NC(=O)[C@H](Cc3ccc(OCC(=O)O)cc3)NC(=O)[C@H](Cc3ccc(-c4ccccc4)cc3)NC(=O)[C@H](Cc3ccc(OCC(=O)O)cc3)NC2=O)c1 [Compound 2238] ({CH2CO}-KY(Carboxymethyl)D[Phe(3-Me)]Y(Carboxymethyl)[Bip]Y(Carboxymethyl)[Orn][dL][Dab][Cha][Val(3-OH)]SC[Dab][Aun]-OH; thioether N-14)
13 | 7.27 | Cc1cccc(C[C@@H]2NC(=O)[C@H](CC(=O)O)NC(=O)[C@H](Cc3ccc(OCC(=O)O)cc3)NC(=O)[C@H](CCCNC(=N)N)NC(=O)CSC[C@@H](C(=O)N(C)[C@@H](C)C(=O)NCCOCCOCC(=O)NCCCCCCCCCCC(=O)O)NC(=O)[C@H](CCCN)NC(=O)[C@H](C(C)C)NC(=O)[C@H](CC3CCCCC3)NC(=O)[C@H](CCN)NC(=O)[C@@H](CC(C)C)NC(=O)[C@H](CCN)NC(=O)[C@H](C(C)C)NC(=O)[C@H](Cc3ccc(-c4ccccc4)cc3)NC(=O)[C@H](C(C)C)NC2=O)c1 [Compound 3319] ({CH2CO}-RY(Carboxymethyl)D[Phe(3-Me)]V[Bip]V[Dab][dL][Dab][Cha]V[Orn]C[NMeA][AEEA][Aun]-OH; thioether N-14)
